In one series the test system is HCoV-229E. The series is described as follows: Anti-human coronavirus 229E activity in MRC5 cells. It counts as cell-based. Conditions: 72 h, viral cytopathic effect. (Damage to the host cells serves as the signal in cytopathic effect assays.)
Series [1] is described as follows: LogD determination by reverse-phase HPLC. It counts as physicochemical. The settings on record: octanol/water, pH 7.4. The method, then:
The octanol/water partitioning (LogD) values of compounds were determined from their retention times during reverse-phase HPLC at pH 7.4 with diode array ultraviolet/visible detection. The LogD values were obtained by interpolation within a standard curve (range LogD: 0.3–5.7) generated with seven standards, with LogD values previously determined using the shake-flask method.

The next series has as its target T1, CYP2B6 (Homo sapiens, UniProt P20813).
T1 sequence (P20813 1-491): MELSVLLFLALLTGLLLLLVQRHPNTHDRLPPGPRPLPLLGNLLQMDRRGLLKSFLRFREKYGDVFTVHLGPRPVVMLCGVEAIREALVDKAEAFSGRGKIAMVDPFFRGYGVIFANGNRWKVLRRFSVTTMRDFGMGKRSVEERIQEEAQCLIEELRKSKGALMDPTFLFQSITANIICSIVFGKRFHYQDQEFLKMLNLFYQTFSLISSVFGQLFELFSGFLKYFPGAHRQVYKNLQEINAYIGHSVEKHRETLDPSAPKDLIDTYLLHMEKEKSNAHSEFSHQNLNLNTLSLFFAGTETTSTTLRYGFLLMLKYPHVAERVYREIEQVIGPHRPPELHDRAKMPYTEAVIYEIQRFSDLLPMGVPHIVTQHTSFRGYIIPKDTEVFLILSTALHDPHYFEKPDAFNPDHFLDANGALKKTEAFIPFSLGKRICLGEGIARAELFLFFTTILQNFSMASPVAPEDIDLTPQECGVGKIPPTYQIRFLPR
The series is described as follows: Metabolism by recombinant human cytochrome P450, CYP2B6. It counts as in vitro ADME. The settings on record: recombinant enzyme. The protocol: (§1) […] of compound was incubated with individual bacterially expressed recombinant human cytochromes P450 co-expressed with human NADPH cytochrome P450 reductase. […] Enzyme-selective positive control substrates were tested in parallel.

The target in series [2] is T2, CYP2C8 (Homo sapiens, UniProt P10632).
T2 sequence (P10632 1-490): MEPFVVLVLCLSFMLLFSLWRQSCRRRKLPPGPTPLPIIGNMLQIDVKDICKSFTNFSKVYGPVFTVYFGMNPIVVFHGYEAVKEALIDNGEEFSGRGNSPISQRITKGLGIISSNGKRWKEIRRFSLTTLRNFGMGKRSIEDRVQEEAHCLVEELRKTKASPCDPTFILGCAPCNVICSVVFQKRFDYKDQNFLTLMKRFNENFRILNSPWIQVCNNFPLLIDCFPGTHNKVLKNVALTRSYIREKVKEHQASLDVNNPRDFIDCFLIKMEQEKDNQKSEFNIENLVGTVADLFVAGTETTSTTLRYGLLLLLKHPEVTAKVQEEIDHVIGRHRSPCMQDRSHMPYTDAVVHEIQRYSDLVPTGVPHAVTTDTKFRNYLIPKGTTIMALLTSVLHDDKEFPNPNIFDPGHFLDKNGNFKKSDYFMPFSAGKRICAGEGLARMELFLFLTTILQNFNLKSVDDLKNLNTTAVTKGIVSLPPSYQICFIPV
The series is described as follows: Metabolism by recombinant human cytochrome P450, CYP2C8. It counts as in vitro ADME. Conditions: recombinant enzyme. The protocol: as §1

For a further series, the target named is CYP2D6 (Homo sapiens, UniProt P10635). The series is described as follows: Metabolism by recombinant human cytochrome P450, CYP2D6. It counts as in vitro ADME. The settings on record: recombinant enzyme. The protocol:
as §1

The test system of a further series is MRC5 cells. Put plainly: Cellular toxicity in MRC5 cells. Conditions: read-out: MRC5 cells CC50; MRC5 cells.
The test system of the next series is Huh7 cells. The series is described as follows: Cellular toxicity in Huh7 replicon cells. Conditions: read-out: HCV genotype 1b replicon CC50; Huh7 cells. A general note: In antiviral work, replicon cells carry a viral genome segment that copies itself.
Another series has as its target T3, CYP1A2 (Homo sapiens, UniProt P05177).
T3 sequence (P05177 1-516): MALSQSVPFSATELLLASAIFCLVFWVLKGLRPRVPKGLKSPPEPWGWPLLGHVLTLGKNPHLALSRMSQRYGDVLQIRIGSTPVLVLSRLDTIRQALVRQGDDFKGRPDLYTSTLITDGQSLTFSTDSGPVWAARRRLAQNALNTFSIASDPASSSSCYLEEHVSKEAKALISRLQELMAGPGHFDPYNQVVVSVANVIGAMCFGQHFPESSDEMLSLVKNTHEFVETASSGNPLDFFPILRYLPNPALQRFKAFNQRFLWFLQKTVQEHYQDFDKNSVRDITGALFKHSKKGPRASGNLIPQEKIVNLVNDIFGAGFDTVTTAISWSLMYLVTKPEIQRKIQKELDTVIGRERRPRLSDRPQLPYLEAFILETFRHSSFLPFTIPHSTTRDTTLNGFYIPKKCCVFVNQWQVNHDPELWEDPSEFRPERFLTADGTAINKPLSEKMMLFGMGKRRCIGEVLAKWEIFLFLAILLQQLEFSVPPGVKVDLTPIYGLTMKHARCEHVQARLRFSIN
The series is described as follows: Cytochrome P450 enzyme inhibition assay, CYP1A2. More on the design: incubated with human hepatic microsomal fractions and NADPH; from tissue; host or cells: human hepatic microsomal fractions. The settings on record: human hepatic microsomal fractions, up to 25 μM. It counts as in vitro ADME. The protocol:
(§2) Up to 25 μM of compounds 29 and 30 was incubated with human hepatic microsomal fractions and NADPH in the presence of individual probe substrates. All assays were designed so that conditions were linear with respect to time and protein concentration. Substrates were present at concentrations equal to or lower than their respective Km values. Enzyme selective products were determined by fluorometry (ethoxyresorufin O-deethylase) or by specific LC-MS/MS assays. Relative enzyme activities were determined by comparison with those assayed with DMSO vehicle instead of inhibitor. IC50 values were calculated by nonlinear curve fitting using a sigmoidal model. Positive control inhibitors for each enzyme were tested in parallel.

Series [3] concerns the target T2, CYP2C8. The series is described as follows: Cytochrome P450 enzyme inhibition assay, CYP2C8. It counts as in vitro ADME. More on the design: incubated with human hepatic microsomal fractions and NADPH; from tissue; host or cells: human hepatic microsomal fractions. Conditions: human hepatic microsomal fractions, up to 25 μM. The protocol:
as §2

A further series has as its target CYP2C9 (Homo sapiens, UniProt P11712). Put plainly: Cytochrome P450 enzyme inhibition assay, CYP2C9. It counts as in vitro ADME. The settings on record: human hepatic microsomal fractions, up to 25 μM. More on the design: incubated with human hepatic microsomal fractions and NADPH; from tissue; host or cells: human hepatic microsomal fractions. The protocol: as §2

For another series, the target named is CYP2C19 (Homo sapiens, UniProt P33261). Put plainly: Cytochrome P450 enzyme inhibition assay, CYP2C19. It counts as in vitro ADME. More on the design: incubated with human hepatic microsomal fractions and NADPH; from tissue; host or cells: human hepatic microsomal fractions. The settings on record: human hepatic microsomal fractions, up to 25 μM. The method, then:
as §2

Sequence of CYP2C19 (P33261 whole entry): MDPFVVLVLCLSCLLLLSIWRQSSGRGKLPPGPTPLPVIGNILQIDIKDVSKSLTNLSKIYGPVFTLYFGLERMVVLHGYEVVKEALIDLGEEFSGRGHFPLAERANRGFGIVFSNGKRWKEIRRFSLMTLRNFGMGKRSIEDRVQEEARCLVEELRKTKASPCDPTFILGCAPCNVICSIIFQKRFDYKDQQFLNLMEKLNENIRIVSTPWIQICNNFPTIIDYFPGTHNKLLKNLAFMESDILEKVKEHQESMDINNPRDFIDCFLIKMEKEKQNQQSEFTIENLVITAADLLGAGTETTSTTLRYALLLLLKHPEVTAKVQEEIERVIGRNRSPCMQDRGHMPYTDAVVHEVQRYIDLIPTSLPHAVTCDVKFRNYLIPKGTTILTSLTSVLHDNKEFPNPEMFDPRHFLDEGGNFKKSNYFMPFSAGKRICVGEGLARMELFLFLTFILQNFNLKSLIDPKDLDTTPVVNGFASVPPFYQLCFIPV
Sequence of CYP2C9 (P11712 whole entry): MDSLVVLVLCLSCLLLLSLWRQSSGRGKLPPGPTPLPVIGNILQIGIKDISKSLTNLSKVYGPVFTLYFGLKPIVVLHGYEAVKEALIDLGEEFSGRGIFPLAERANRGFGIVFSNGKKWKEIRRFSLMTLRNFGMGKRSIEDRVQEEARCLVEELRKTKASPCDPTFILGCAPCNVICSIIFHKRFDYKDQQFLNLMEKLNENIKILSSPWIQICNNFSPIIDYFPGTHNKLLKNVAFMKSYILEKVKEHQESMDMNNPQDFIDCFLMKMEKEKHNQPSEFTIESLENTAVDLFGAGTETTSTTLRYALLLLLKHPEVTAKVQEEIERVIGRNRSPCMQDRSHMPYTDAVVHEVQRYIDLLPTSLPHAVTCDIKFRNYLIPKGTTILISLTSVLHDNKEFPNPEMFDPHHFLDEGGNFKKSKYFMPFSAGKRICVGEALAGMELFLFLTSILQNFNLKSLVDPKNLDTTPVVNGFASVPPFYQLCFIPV
Sequence of CYP2D6 (P10635 whole entry): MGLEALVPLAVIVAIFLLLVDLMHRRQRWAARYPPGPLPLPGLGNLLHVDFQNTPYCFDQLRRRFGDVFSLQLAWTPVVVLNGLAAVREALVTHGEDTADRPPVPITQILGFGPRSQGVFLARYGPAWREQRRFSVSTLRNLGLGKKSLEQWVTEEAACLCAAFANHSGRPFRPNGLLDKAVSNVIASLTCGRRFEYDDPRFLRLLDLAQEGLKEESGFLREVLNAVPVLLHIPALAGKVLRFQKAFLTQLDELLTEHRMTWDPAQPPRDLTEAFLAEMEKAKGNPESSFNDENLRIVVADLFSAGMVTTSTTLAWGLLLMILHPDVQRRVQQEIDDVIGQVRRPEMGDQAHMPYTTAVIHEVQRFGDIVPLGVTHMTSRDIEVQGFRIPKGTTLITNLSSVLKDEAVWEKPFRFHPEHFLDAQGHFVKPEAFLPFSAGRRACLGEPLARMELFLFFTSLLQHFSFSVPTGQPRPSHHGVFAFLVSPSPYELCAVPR

In general, EC50 refers to the concentration at which the effect is half-maximal. Lower therefore signals a more potent agent. Broadly, the LogD is lipophilicity at a set pH, counting ionised and neutral species. The term CC50 denotes the concentration at which the toxic effect on the cells reaches its halfway point. By IC50 is commonly meant the concentration needed to halve the response being measured. Read a high IC50 as weaker potency. On to `CSCCC(NC(=O)NCc1ccc(N)cc1)C(=O)N1CCCC1c1ccccc1SC.O=C(O)C(F)(F)F` (stereo not shown) [Compound 30], for which the 50% effective concentration (EC50) with HCoV-229E stood at 7.2 ± 1.8 µM. In addition, the LogD in [1] came to 2.6. Also, the results for the “Rate of metabolism by human cytochrome P450 CYP2B6” value at CYP2B6 and at CYP2B6 (listed as compound 30) were below 0.12 pmol/pmol P450/min and “Neither compound 29 nor compound 30 was metabolized”, respectively. In addition, the “Rate of metabolism by human cytochrome P450 CYP2C8” value on CYP2C8 [2] worked out at 0.56 pmol/pmol P450/min. Also, the “Rate of metabolism by human cytochrome P450 CYD2D6” value on CYP2D6 is recorded as 1.24 pmol/pmol P450/min. The CC50 with MRC5 cells and in the series on Huh7 cells was above 100 µM in each case. Also, the IC50 at CYP1A2 is above 25 µM; against CYP2C8 [3], 9.4 µM; against CYP2C9, above 25 µM; on CYP2C19, above 25 µM. For the same molecule, the “Inhibition of cytochrome P450 activity, IC50 CYP1A2” value at CYP1A2 is listed as “Neither compound 29 nor compound 30 significantly inhibited”. On CYP2C8 [3], the “Inhibition of cytochrome P450 activity, IC50 CYP2C8” value is “moderate inhibitors”. Further, at CYP2C9, the “Inhibition of cytochrome P450 activity, IC50 CYP2C9” value is listed as “Neither compound 29 nor compound 30 significantly inhibited”. Besides, the “Inhibition of cytochrome P450 activity, IC50 CYP2C19” value at CYP2C19 is reported as “Neither compound 29 nor compound 30 significantly inhibited”.
